Reference: US6555714B1, “Inhibitors of hydroxyphenylpyruvate dioxygenase and an assay for identification of inhibitors” (Hoechst Aktiengesellschaft, priority 1993, dated 2003)
Where “and” joins values, the source holds several entries; their conditions need not be identical. Equal entries are not always repeated.

Columns and labels:
[1] = target: anabolic plant HPPD (p-hydroxyphenylpyruvate dioxygenase) from maize (Zea mays, UniProt A0A1D6H1G0); assay type: biochemical; details: for IC50: Table 1 of compounds of formula (I), HPPD inhibition, IC50 is a molar concentration
Procedure: A modified form of the method for measuring catabolic HPPDs from human liver has been described by Lindblad (Lindblad, B. (1971) Clin. Chim. Acta 34, 113-121). End-point measurements are used in this case for detecting ^14C—CO2, which is liberated from ^14C-p-hydroxyphenylpyruvate by the enzymatic activity of HPPD.
To enrich the anabolic HPPD from plant tissues, young etiolated maize plants were homogenized in extraction buffer (20 mM phosphate buffer pH 7.0; 0.14 M KCl; 0.1 mg/ml glutathione and 1% insoluble polyvinylpyrrolidone) for 3×10 seconds, for example in a Waring blender. The extract was filtered (all other isolation steps were carried out at 4° C.) and centrifuged (20 minutes; 10,000 g). The supernatant was subjected to fractional ammonium sulfate precipitation. […] At this stage, it was possible to store the enzyme at −80° C. following dialysis in a suitable buffer, such as, for example, 20 mM phosphate buffer pH 7.0; 0.14 M KCl; 0.1 mg/ml glutathione.
The enzyme assays were performed in 20 ml polyethylene screw-top containers. Two hypodermic needles (0.9×40 mm) were pushed through the screw-top cap. One of the hypodermic needles was bent to form a hook onto which a small filter paper disk of diameter 10 mm was placed. The filter paper was moistened with 25 μl of methylbenzethonium hydroxide (Sigma). The second hypodermic needle was used for injecting start and stop solution into the screw-top container.
The enzyme reaction mix contained:
1 ml of 0.1 M phosphate buffer, pH 7.3;
2 g/l of bovine liver catalase;
100 μl of a mixture of 3 mM dichlorophenol-indophenol and
150 mM glutathione (reduced);
25 μl of acetone (or potential inhibitors dissolved in acetone) and
enzyme in a total volume of 1,635 μl.
After preincubation for 5 minutes at 30° C., the reaction was started by injecting 800 μl of ^14C-p-hydroxyphenylpyruvate. The reaction was stopped by injecting 600 μl of 1 N H2SO4, incubation was continued for 15 minutes, and the radioactivity which was liberated was determined on the small filter paper disks in a liquid scintillation counter.
(§1) FEBS-Letters, 1993, 318 (2), 162-166.

Lemna gibba [2] = test: Growth inhibition of Lemna; assay type: in vivo; details: for inhibition at 100 µM: 10^−4 M; for inhibition at 10 µM: 10^−5 M; for inhibition at 1 µM: 10^−6 M
From the text: as §1

Lemna gibba [3] = test: Neutralization of the effect of SC-0051 by homogentisic acid, number of Lemna gibba plants; assay type: in vivo; details: day six
Procedure: HPPD catalyzes the transformation of p-hydroxyphenylpyruvate to homogentisic acid. If HPPD inhibition is responsible for the herbicidal activity of an inhibitor, then it should be possible to neutralize the herbicidal effect by supplementation with homogentisic acid. […] The plant was grown in a sterile aqueous medium supplemented as described in Table 1.
Batches of three Lemna plants in 100 ml of sterile medium were incubated for six days with sterile-filtered supplements. […] The number of newly formed plants was determined on day six.

[4] = test system: plastoquinone biosynthesis in wheat; test: Incorporation of radioactivity from 14C-tyrosine into plastoquinone in wheat (thin-layer chromatography); assay type: in vivo; details: wheat plants sprayed with 100 g/ha in screening formulation, FIG. 1
Procedure: Thin-layer chromatography analysis of the incorporation of radioactivity from ^14C-tyrosine into plastoquinone. […] The lipophilic metabolites of the wheat were extracted using chloroform, separated on silica gel 60 HPTLC plates using chloroform: diethyl ether (99:1), and the radioactivity was analyzed by thin-layer scanner.

Sequence of anabolic plant HPPD (p-hydroxyphenylpyruvate dioxygenase) from maize (A0A1D6H1G0 entry or part of it): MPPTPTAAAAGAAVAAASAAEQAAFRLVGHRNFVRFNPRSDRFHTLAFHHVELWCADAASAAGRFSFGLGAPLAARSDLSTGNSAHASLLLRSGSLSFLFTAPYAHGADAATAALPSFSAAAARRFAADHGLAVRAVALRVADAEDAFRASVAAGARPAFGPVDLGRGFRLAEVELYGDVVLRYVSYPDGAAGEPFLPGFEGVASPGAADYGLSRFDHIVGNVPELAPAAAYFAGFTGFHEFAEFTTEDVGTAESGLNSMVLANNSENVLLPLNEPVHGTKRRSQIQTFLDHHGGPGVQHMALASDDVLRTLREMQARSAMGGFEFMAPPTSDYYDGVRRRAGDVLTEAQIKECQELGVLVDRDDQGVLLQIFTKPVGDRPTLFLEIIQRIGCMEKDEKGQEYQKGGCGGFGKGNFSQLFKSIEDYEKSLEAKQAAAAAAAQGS

Row | Compound | IC50 [1] [nM] | melting point | inhibition at 100 µM (Lemna gibba [2]) [%] | inhibition at 10 µM (Lemna gibba [2]) [%] | inhibition at 1 µM (Lemna gibba [2]) [%] | further results
1 | CS(=O)(=O)c1ccc(C(=O)c2cc(C(=O)O)ccc2O)c(Cl)c1 [compound 88] | 70 | 254 to 256 °C |  |  |  | 
2 | CS(=O)(=O)c1ccc(C(=O)c2c(O)cc(Cl)cc2Cl)c(Cl)c1 [Example No. 183, 2,2′,4′-Trichloro-6′-hydroxy-4-methylsulfonylbenzophenone] | 4.8 | 123 to 126 °C and 123 to 125 °C | 98 | 82 | 81 | 
3 | Cc1cc(Cl)cc(C(=O)c2ccc(S(C)(=O)=O)cc2Cl)c1O [Example No. 100, 2,5′-Dichloro-2′-hydroxy-3′-methyl-4-methylsulfonylbenzophenone] | 6.2 | 175 to 180 °C | 98 | 96 | 92 | 
4 | CS(=O)(=O)c1ccc(C(=O)C2C(=O)CCCC2=O)c(Cl)c1 [SC-0051, 2-(2-chloro-4-methanesulfonylbenzoyl)-1,3-cyclohexanedione] |  |  |  |  |  | Number of L. gibba plants (Lemna gibba [3]; 10^−7 M SC-0051, medium supplemented with 1 mM HGA): 32; Number of L. gibba plants (Lemna gibba [3]; 10^−7 M SC-0051, medium supplemented with 1 mM HPPD): 2; Number of L. gibba plants (Lemna gibba [3]; 10^−7 M SC-0051, no supplementation of the medium, start three plants): 3; Plastoquinone biosynthesis (incorporation of radioactivity from tyrosine into plastoquinone) [4]: inhibited
5 | 2-(2,4-Dichlorobenzoyl)-1,4-quinone [Example No. 91] | 18 |  |  |  |  | 
6 | CC1(C)CON(Cc2ccccc2Cl)C1=O [clomazone, reference compound] |  |  |  |  |  | Inhibition of HPPD (in words) ([1]; partially purified maize HPPD, FIG. 2): no inhibitory action
